{"source": "paper PMC6813295", "about": "“A tumour-selective cascade activatable self-detained system for drug delivery and cancer imaging” (Nature Communications, 2019)", "key": {"H460 tumour-bearing mice": {"tested_on": "H460 tumour-bearing mice", "assay": "Tumour penetration, distance from CD31-stained vessels in frozen tumour sections", "type": "in vivo, mouse", "protocol": "Fig. 5 Tumour penetrations of TCASS. a 3D reconstruction PA images of tumour-bearing mice injected with molecule 1, SiO2 nanoparticles (SiO2 NPs) and liposome labelled by Cy. The degrees of penetration into the tumour were calculated. To better illustrate the penetration extent of molecule 1, SiO2 nanoparticles (SiO2 NPs) and liposome labelled by Cy, the tumour tissue was divided into five parts with identical radius intervals, which indicated the trend from the tumour edge to the interior (the red dashed circles show the tumour margin, and the grey dashed circles show the normalized distance from the tumour edge). b Quantification of the PA signal intensity. The PA intensity in the intratumoural distribution area between neighbouring polygons was normalized by the corresponding area. Data are presented as the mean ± s.d. (n = 3). ***p < 0.001, p values were performed with one-way ANOVA followed by post hoc Tukey’s test for the indicated comparison. c Frozen sections of tumour removed after treatment with molecule 1, SiO2 NPs and liposome labelled by Cy for 12 h. The tumour cell nucleus and vessels were stained with DAPI and FITC-tagged CD31 antibody, respectively. d Quantification of the penetrative distance of molecule 1, SiO2 NPs and liposome labelled by Cy from the tumour vessels. Data are presented as the mean ± s.d. (n = 8). ***p < 0.001, p values were performed with one-way ANOVA followed by post hoc Tukey’s test for the indicated comparison. Scale bar: a 2 mm; c 50 μm\nAll animal experiments were performed as previously described. H460 cells were also subcutaneously implanted on the right flank of xenografts mice. After the tumour had developed, Molecule 1 (14 mg/kg, n = 3), liposome and SiO2 nanoparticles labelled by Cy (the same molar amount of Cy, n = 3) dissolved into PBS was intravenously injected through tail vein of mice. The control group was PBS at the same conditions. […] In order to quantify the PA signal intensity, the intratumoral distribution area was normalized with the tumour regions."}, "[1]": {"type": "physicochemical", "protocol": "microscopy (UltraVIEW VoX).\nH460 cells (1 x 10^5 cells per well) were seeded in a confocal microscopy dish (MatTek). After culture for 24 h, the cells were treated with P7 (XIAP inhibitor) (50 μM) or […] (caspase inhibitor) (10 μM) for 3 h and followed by PBS washing. And then the molecule 1 (50 μM) and 2 (50 μM) were individually added for 1 h and followed by PBS washing and fresh medium replacement.\nAfter further 6 h of incubation, the cells were washed twice by PBS and stained with bisBenzimide H 33342 trihydrochloride (Hoechst 33342) (1 mg ml-1; Life Technologies) at 37 °C for 10 min. […]\n[Cy]0 is the initial concentration of the molecule 1 or 4, [Cy]t is the concentration of the molecule 1 or […] after the irradiation of t min. Based on Beer rule, it has the linear relation between the concentration of the molecule 1 or 4 and the absorbance in maximal wavelength for the low concentration cyanine dye. […]\nA0 is the absorbance in maximal wavelength before the irradiation, and At is the absorbance in maximal wavelength after the irradiation. […]\nThe pathway of molecule 1 entering cells. […] Subsequently, H460 cells were treated with molecule 1 (50 uM), after 2 h of incubation at 37 ℃ the medium was removed and the cells were washed three times with PBS and analysed by confocal laser scanning […]"}}, "note": "Where a SMILES comes first, the peptide text is derived from it. The star is where a group is joined. X1 = CC1(C)C(=CC=C2CCCC(C=CC3=[N+](CCCCCC(=O)O)c4ccccc4C3(C)C)=C2*)N(CCCCCC(=O)O)c2ccccc21", "data": [{"smiles": "CC[C@H](C)[C@H](NC(=O)[C@@H]1CCCN1C(=O)[C@@H](NC(=O)[C@H](C)N)C(C)C)C(=O)N[C@@H](C)C(=O)N[C@@H](CCC(N)=O)C(=O)N[C@@H](CCCCN)C(=O)N[C@@H](CC(=O)O)C(=O)N[C@@H](CCC(=O)O)C(=O)N[C@H](C(=O)N[C@@H](CC(=O)O)C(=O)N[C@@H](CCCCN)C(=O)N[C@@H](CC(C)C)C(=O)N[C@H](C(=O)N[C@@H](Cc1ccccc1)C(=O)N[C@@H](Cc1ccccc1)C(=O)N[C@@H](C)C(=O)N[C@@H](CCC(=O)O)C(=O)N[C@@H](CSC1=C(C=CC2=[N+](CCCCCC(=O)O)c3ccccc3C2(C)C)CCCC1=CC=C1N(CCCCCC(=O)O)c2ccccc2C1(C)C)C(=O)NCC(=O)O)C(C)C)C(C)C", "note": "[molecule 1] (H-AVPIAQKDEVDKLVFFAEC(X1)G-OH)", "values": [{"measurement": "penetrative distance of signal from the tumour blood vessels", "setting": "H460 tumour-bearing mice; 12 h post IV injection, 14 mg/kg or same molar amount of Cy, frozen sections, mean ± s.d. n = 8", "value": "approximately 67.4 ± 10.3 μm"}, {"measurement": "penetration distance of molecule 1 relative to SiO2 nanoparticles", "setting": "H460 tumour-bearing mice; 12 h post injection", "value": "~10", "unit": "times"}, {"measurement": "penetration distance of molecule 1 relative to liposomes", "setting": "H460 tumour-bearing mice; 12 h post injection", "value": "approximately 13 times"}, {"measurement": "photobleaching after irradiation for 6 h", "setting": "[1]; irradiation 6 h, pure water, Suppl. Fig. 16: xenon flash lamp, 5 μM in PBS buffer 10 mM pH 7.4, r.t., absorbance at 780 nm", "value": 42, "unit": "%"}, {"measurement": "photodegradation rate of molecule 1 relative to that of 4", "setting": "[1]; rate constants k from ln(A0/At) = kt, tested in parallel", "value": 7.5, "unit": "fold"}]}]}
